In general, pIC50 refers to the IC50 on a negative log10 scale, so that one unit is a factor of ten.

Among the data in patent US9067871B2, “Aminotetraline derivatives, pharmaceutical compositions containing them, and their use in therapy” (ABBVIE DEUTSCHLAND GMBH & CO KG, priority 2009, dated 2015) are IC50 and Ki values, retold here.

Each structure is given as a SMILES string. pIC50, pKi: −log10 of the molar value. Where a name gives a salt, the structure may show the parent alone. Read-outs that look alike come from different tables or passages of the source.

One assay addresses human GlyT1c (Homo sapiens (Human), UniProt P48067). The experiment in a line: [3H]-Glycine uptake into recombinant CHO cells expressing human GlyT1. It is filed as cell-based. The gist of the method:
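Recombinant CHO cells stably expressing hGlyT1c, grown 24 h to sub-confluency on scintillating plates, given inhibitor or vehicle plus 200 nM (final) [3H]-glycine in HBSS. Uptake counted continuously by solid-phase scintillation for up to 3 h; nonspecific uptake defined with 10 μM Org24598.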

The next assay addresses human GlyT1c transporter (Homo sapiens (Human), UniProt P48067). Kind of assay: Radioligand binding assay using recombinant CHO cell membranes expressing human GlyT1. The conditions noted are these: read-out: radioligand binding Kiapp. The text has this: 2. Radioligand binding assays using recombinant CHO cell membranes expressing human GlyT1: […]
[1] abbreviates: hGlyT1c_5_CHO cells, 200 nM [3H]-glycine.
The mark [2] stands for this setting: human GlyT1c-expressing CHO cell membranes.

human GlyT1c transporter, sequence (P48067 whole entry): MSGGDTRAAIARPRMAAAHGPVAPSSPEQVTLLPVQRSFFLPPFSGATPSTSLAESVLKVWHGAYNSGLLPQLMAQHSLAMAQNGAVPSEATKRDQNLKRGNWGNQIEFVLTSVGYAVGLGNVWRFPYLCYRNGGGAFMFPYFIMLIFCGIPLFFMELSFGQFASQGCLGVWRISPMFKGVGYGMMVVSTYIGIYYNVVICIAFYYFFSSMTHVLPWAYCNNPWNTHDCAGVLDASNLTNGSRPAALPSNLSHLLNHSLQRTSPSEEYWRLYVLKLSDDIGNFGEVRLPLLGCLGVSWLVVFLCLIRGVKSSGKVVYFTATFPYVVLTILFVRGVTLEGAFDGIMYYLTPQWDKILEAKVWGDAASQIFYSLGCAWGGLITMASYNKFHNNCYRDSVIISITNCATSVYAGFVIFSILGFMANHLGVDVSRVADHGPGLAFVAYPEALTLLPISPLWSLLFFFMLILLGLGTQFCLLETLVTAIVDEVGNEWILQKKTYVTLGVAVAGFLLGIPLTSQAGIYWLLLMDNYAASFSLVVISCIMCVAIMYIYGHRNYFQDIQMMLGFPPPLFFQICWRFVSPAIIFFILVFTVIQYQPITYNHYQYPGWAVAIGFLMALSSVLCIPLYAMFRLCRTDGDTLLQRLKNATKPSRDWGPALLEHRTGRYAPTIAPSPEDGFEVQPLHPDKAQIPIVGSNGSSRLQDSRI
human GlyT1c, sequence (P48067 whole entry): as above

With `CCOC(=O)NC1CCc2ccc(OCCNS(=O)(=O)CC)cc2C1Cc1cccc(Cl)c1` (stereo not shown) [Example 65, [1-(3-Chloro-benzyl)-7-(2-ethanesulfonylamino-ethoxy)-1,2,3,4-tetrahydro-naphthalen-2-yl]-carbamic acid ethyl ester], the pIC50 on human GlyT1c (setting [1]) was at least 4.00. Further, the pKi on human GlyT1c transporter (setting [2]) was at most 5.00.
For the compound `CCn1cc(S(=O)(=O)NCCOc2ccc3c(c2)C(Cc2cccc(Cl)c2)C(N)CC3)cn1` (stereo not shown) [Example 66, 1-Ethyl-1H-pyrazole-4-sulfonic acid {2-[7-amino-8-(3-chloro-benzyl)-5,6,7,8-tetrahydronaphthalen-2-yloxy]-ethyl}-amide hydrochloride], at human GlyT1c, the pIC50 was at least 6.00. Further, the pKi on human GlyT1c transporter was at least 7.00.
As to `Cc1csc(S(=O)(=O)NCCOc2ccc3c(c2)C(Cc2cccc(Cl)c2)C(N)CC3)c1` (stereo not shown) [Example 67, 4-Methyl-thiophene-2-sulfonic acid {2-[7-amino-8-(3-chloro-benzyl)-5,6,7,8-tetrahydronaphthalen-2-yloxy]-ethyl}-amide hydrochloride], at human GlyT1c (setting [1]), the pIC50 was at least 6.00. Further, the pKi at human GlyT1c transporter (setting [2]) was at least 7.00.
The matching figures for `Cc1ccc(S(=O)(=O)NCCOc2ccc3c(c2)C(Cc2cccc(Cl)c2)C(N)CC3)s1` (stereo not shown) [Example 68, 5-Methyl-thiophene-2-sulfonic acid {2-[7-amino-8-(3-chloro-benzyl)-5,6,7,8-tetrahydronaphthalen-2-yloxy]-ethyl}-amide hydrochloride]: at least 5.00 and at least 6.00.
As to `Cc1cc(S(=O)(=O)NCCOc2ccc3c(c2)C(Cc2cccc(Cl)c2)C(N)CC3)c(C)s1` (stereo not shown) [Example 69, 2,5-Dimethyl-thiophene-3-sulfonic acid {2-[7-amino-8-(3-chloro-benzyl)-5,6,7,8-tetrahydronaphthalen-2-yloxy]-ethyl}-amide hydrochloride], at human GlyT1c (setting [1]), the pIC50 was at least 5.00. Also, the pKi at human GlyT1c transporter (setting [2]) is at least 6.00.
As for `CCS(=O)(=O)NCCOc1ccc2c(c1)C(Cc1cccc(Cl)c1)C(N)CC2` (stereo not shown) [Example 70, Ethanesulfonic acid {2-[7-amino-8-(3-chloro-benzyl)-5,6,7,8-tetrahydro-naphthalen-2-yloxy]-ethyl}-amide hydrochloride], the pIC50 on human GlyT1c is at least 6.00. Besides, the pKi on human GlyT1c transporter was at least 7.00.
Take `Cn1cc(S(=O)(=O)NCCOc2ccc3c(c2)C(Cc2ccc(Cl)cc2Cl)C(N)CC3)cn1` (stereo not shown) [Example 71, 1-Methyl-1H-pyrazole-4-sulfonic acid {2-[7-amino-8-(2,4-dichloro-benzyl)-5,6,7,8-tetrahydro-naphthalen-2-yloxy]-ethyl}-amide hydrochloride]: the pIC50 at human GlyT1c (setting [1]) is at least 7.00. Besides, on human GlyT1c transporter (setting [2]), the pKi was at least 8.00.
The matching figures for `NC1CCc2ccc(OCCNS(=O)(=O)c3cccs3)cc2C1Cc1ccc(Cl)cc1Cl` (stereo not shown) [Example 72, Thiophene-2-sulfonic acid {2-[7-amino-8-(2,4-dichloro-benzyl)-5,6,7,8-tetrahydronaphthalen-2-yloxy]-ethyl}-amide hydrochloride]: at least 5.00 and at least 5.00.
For `Cc1ccc(S(=O)(=O)NCCOc2ccc3c(c2)C(Cc2ccc(Cl)cc2Cl)C(N)CC3)s1` (stereo not shown) [Example 73, 5-Methyl-thiophene-2-sulfonic acid {2-[7-amino-8-(2,4-dichloro-benzyl)-5,6,7,8-tetrahydronaphthalen-2-yloxy]-ethyl}-amide hydrochloride], the pIC50 on human GlyT1c (setting [1]) was at least 5.00. In addition, the pKi at human GlyT1c transporter (setting [2]) is at least 6.00.
Take `CCCS(=O)(=O)NCCOc1ccc2c(c1)C(Cc1ccc(Cl)cc1Cl)C(NC(=O)OCC)CC2` (stereo not shown) [Example 74, {1-(2,4-Dichloro-benzyl)-7-[2-(propane-1-sulfonylamino)-ethoxy]-1,2,3,4-tetrahydronaphthalen-2-yl}-carbamic acid ethyl ester]: on human GlyT1c (setting [1]), the pIC50 is at least 4.00. Moreover, at human GlyT1c transporter (setting [2]), the pKi is at most 5.00.
In the case of `CCCS(=O)(=O)NCCOc1ccc2c(c1)C(Cc1ccc(Cl)cc1Cl)C(N)CC2` (stereo not shown) [Example 75, Propane-1-sulfonic acid {2-[7-amino-8-(2,4-dichloro-benzyl)-5,6,7,8-tetrahydronaphthalen-2-yloxy]-ethyl}-amide hydrochloride], the pIC50 at human GlyT1c (setting [1]) was at least 5.00. Further, on human GlyT1c transporter (setting [2]), the pKi was at least 6.00.
The matching figures for `CCCS(=O)(=O)N(C)CCOc1ccc2c(c1)C(Cc1ccc(Cl)cc1)C(NC(=O)OCC)CC2` (stereo not shown) [Example 76, (1-(4-Chloro-benzyl)-7-{2-[methyl-(propane-1-sulfonyl)-amino]-ethoxy}-1,2,3,4-tetrahydronaphthalen-2-yl)-carbamic acid ethyl ester]: at least 3.00 and at least 4.00.
The matching figures for `CCCS(=O)(=O)N(C)CCOc1ccc2c(c1)C(Cc1ccc(Cl)cc1)C(N)CC2` (stereo not shown) [Example 77, Propane-1-sulfonic acid {2-[7-amino-8-(4-chloro-benzyl)-5,6,7,8-tetrahydro-naphthalen-2-yloxy]-ethyl}-methyl-amide hydrochloride]: at least 6.00 and at least 7.00.
The matching figures for `CCCS(=O)(=O)N(C)CCOc1ccc2c(c1)C(Cc1cccc(Cl)c1)C(NC(=O)OCC)CC2` (stereo not shown) [Example 78, (1-(3-Chloro-benzyl)-7-{2-[methyl-(propane-1-sulfonyl)-amino]-ethoxy}-1,2,3,4-tetrahydronaphthalen-2-yl)-carbamic acid ethyl ester]: at least 5.00 and at least 5.00.
With `CCCS(=O)(=O)N(C)CCOc1ccc2c(c1)C(Cc1cccc(Cl)c1)C(N)CC2` (stereo not shown) [Example 79, Propane-1-sulfonic acid {2-[7-amino-8-(3-chloro-benzyl)-5,6,7,8-tetrahydronaphthalen-2-yloxy]-ethyl}-methyl-amide hydrochloride], at human GlyT1c (setting [1]), the pIC50 is at least 6.00. The pKi on human GlyT1c transporter (setting [2]) is at least 7.00.
The matching figures for `CCOC(=O)NC1CCc2ccc(OCCNS(=O)(=O)c3cn(C)cn3)cc2C1Cc1cccc(Cl)c1` (stereo not shown) [Example 80, {1-(3-Chloro-benzyl)-7-[2-(1-methyl-1H-imidazole-4-sulfonylamino)-ethoxy]-1,2,3,4-tetrahydro-naphthalen-2-yl}-carbamic acid ethyl ester]: at least 6.00 and at least 6.00.
Regarding `CCOC(=O)NC1CCc2ccc(OCCNS(=O)(=O)c3cnn(C(F)F)c3)cc2C1Cc1cccc(Cl)c1` (stereo not shown) [Example 81, {1-(3-Chloro-benzyl)-7-[2-(1-difluoromethyl-1H-pyrazole-4-sulfonylamino)-ethoxy]-1,2,3,4-tetrahydro-naphthalen-2-yl}-carbamic acid ethyl ester], on human GlyT1c (setting [1]), the pIC50 is at most 3.00. In addition, the pKi at human GlyT1c transporter (setting [2]) is at least 5.00.
On the same counts, the results for `CCCS(=O)(=O)N1CCC[C@@H]1COc1ccc2c(c1)C(Cc1cccc(Cl)c1)C(N)CC2` (stereo partly drawn) [Example 82, 1-(3-Chloro-benzyl)-7-[(R)-1-(propane-1-sulfonyl)-pyrrolidin-2-ylmethoxy]-1,2,3,4-tetrahydro-naphthalen-2-ylamine hydrochloride] are at least 6.00 and at least 7.00.
On the same counts, the results for `CCCS(=O)(=O)N1CC(Oc2ccc3c(c2)C(Cc2cccc(Cl)c2)C(N)CC3)C1` (stereo not shown) [Example 83, 1-(3-Chloro-benzyl)-7-[1-(propane-1-sulfonyl)-azetidin-3-yloxy]-1,2,3,4-tetrahydronaphthalen-2-ylamine hydrochloride] are at least 5.00 and at least 6.00.
Regarding `CCS(=O)(=O)CCCOc1ccc2c(c1)C(Cc1cccc(Cl)c1)C(N)CC2` (stereo not shown) [Example 84, 1-(3-Chloro-benzyl)-7-(3-ethanesulfonyl-propoxy)-1,2,3,4-tetrahydro-naphthalen-2-ylamine hydrochloride], the pIC50 at human GlyT1c was at least 5.00. In addition, on human GlyT1c transporter, the pKi is at least 5.00.
